For one series, the system named is MDA-MB-231. In words: Anti-proliferative effect in MDA-MB-231 (CellTiter-Glo). The format is cell-based, human. The following applies: MDA-MB-231, 3 days. The protocol: This assay studied the inhibitory effect of the compounds on cell proliferation by detecting the effect of the test compounds on the in vitro activity of tumor cells MV4-11 and MDA-MB-231.
The tumor cell lines were cultured in an incubator at 37° C., 5% CO2 or 0% CO2according to the above culture conditions. The cells were periodically passaged, and cells in logarithmic growth phase were taken for plating. • 2. Cell plating • (1). Cells were stained with trypan blue and viable cells were counted. • (2).
• (3). 90 μL of cell suspension was added to each well of the culture plate, and culture medium without cells was added to the blank control well. • (4). The plate was incubated overnight in an incubator at 37° C., 5% CO2 or 0% CO2, and 100% relative humidity. • 3. Preparation of a compound storage plate
Preparation of a 400× compound storage plate: The compounds were diluted with DMSO in a gradient from the highest concentration to the lowest concentration. The plates were prepared freshly at each time for use. • 4. Preparation of 10× compound working solution and treatment of cells with compounds • (1). Preparation of 10× compound working solution: compound or DMSO was added, and the well content was mixed to uniform by aspiration and expelling with pipette. 78 μL of cell culture medium was added to a 96-well plate with a V-shaped bottom. 2 μL of the compound from the 400× compound storage plate was added to the cell culture medium in the 96-well plate. 2 μL of DMSO was added to the vehicle control and the blank control. After adding compound or DMSO, the well content was mixed to uniform by aspiration and expelling with pipette. • (2). Dosing: 10 μL of 10× compound working solution was added to the cell culture plate. 10 μL of DMSO-cell culture mix solution was added to the vehicle control and blank control. • (3). The 96-well cell plate was placed back into the incubator and cultured for 3 days. • 5. CellTiter-Glo luminescence cell viability detection
The following steps were performed according to the instruction of Promega CellTiter-Glo luminescence cell viability detection kit (Promega-G7573). • (1). The CellTiter-Glo buffer was thawed and allowed to stand to reach room temperature; • (2). CellTiter-Glo substrate was allowed to stand to reach room temperature; • (3). 10 mL of CellTiter-Glo buffer was added to CellTiter-Glo substrate in a bottle to dissolve the substrate to formulate CellTiter-Glo working solution; • (4). The working solution was vortexed slowly for fully dissolution; • (5). The cell culture plates were taken out and allowed to stand for 30 minutes to equilibrate to room temperature; • (6). 50 μL (equal to half the volume of cell culture solution in each well) of Cell Titer-Glo working solution was added into each well. The cell plate was wrapped with aluminum foil to protect the cell plate from light; • (7). The culture plates were shaken on an orbital shaker for 2 minutes to induce cell lysis; • (8). The culture plates were left at room temperature for 10 minutes to stabilize the luminescence signal; • (9). The luminous signal was detected on the 2104 En Vision plate reader. • 6. Data analysis
The following formula was used to calculate the inhibition rate (IR) of the test compounds: IR (%)=(RLU of the vehicle control−RLU of the compound)/(RLU of the vehicle control−RLU of the blank control)*100%. The inhibition rates of the compounds at different concentrations were calculated in Excel, and then GraphPad Prism software was used to graph the inhibition curves and calculate the relevant parameters, including the minimum inhibition rate, maximum inhibition rate and IC50.
(In ATP-based viability assays light output follows the ATP content of the culture.)

A short description of series [1]: Pharmacokinetics of the compound in rats. The format is in vivo, SD rats. The text has this: In this study, SD male rats were selected as the test animals, and the LC/MS/MS method was used to quantitatively determine the drug concentration at different time points in the plasma of rats intravenously or orally administered the test compound, so as to evaluate the pharmacokinetic profile of the test compound in rats.
Sprague Dawley (SD) rats (male, 200-300 g, 7-10 weeks old, Beijing Vital River).
A clear solution or suspension of the test compound was intravenously injected into SD rats (fasted overnight) via tail or given to SD rats (fasted overnight) by gavage. For intravenous injection administration, blood was collected from the jugular vein at 0 h (before administration) and 0.083, 0.25, 0.5, 1, 2, 4, 6, 8, and 24 h after administration. Each sample was collected about 0.25 mL. Heparin sodium was added to anti-coagulate. Blood samples were collected and placed on wet ice, and centrifuged within 1 hour to separate the plasma (centrifugation conditions: 6000 g, 3 minutes, 2-8° C.). Plasma samples were stored in a −80° C. refrigerator before analysis; For oral gavage administration, blood was collected from the jugular vein at 0 h (before administration) and 0.083, 0.25, 0.5, 1, 2, 4, 6, 8, and 24 h after administration. Each sample was collected about 0.25 mL. Heparin sodium was added to anti-coagulate. Blood samples were collected and placed on wet ice, and centrifuged within 1 hour to separate the plasma (centrifugation conditions: 6000 g, 3 minutes, 2-8° C.). Plasma samples were stored in an −80° C. refrigerator before analysis. Through blood drug concentration data at different time points, Phoenix WinNonlin8.2.0 was used to calculate pharmacokinetic parameters, providing parameters such as AUC0-t, AUC0-∞, MRT0-∞, Cmax, Tmax, and T1/2, etc. and their mean and standard deviation.

Where [2] appears, read: administration by gavage (10 mg/kg).

Results on one compound are retold here after patent US20240317722A1, “HETEROARYL-3-PIPERIDINEDIONE COMPOUND AND USE THEREOF” (Medshine Discovery Inc., priority 2021, published 2024).

As for `COCCOc1cc(NC(=O)NCc2ccc3c(C4CCC(=O)NC4=O)coc3c2)cc(Cl)c1C` (stereo not shown) [WX005], the IC50 (in general, the midpoint of a concentration-inhibition curve) in the series on MDA-MB-231 (Homo sapiens, 72 h) came out at 4.7 nM. The “Max. IR (maximum inhibition rate)” value with MDA-MB-231 is 80.7%. Also, in series [1] (setting [2]), the “Area under the plasma concentration-time curve (0-inf)” value is 264.34 µM·h, the Peak concentration worked out at 14.4 µM and the Time to peak amounted to 5.33 h. The “Area under the plasma concentration-time curve (0-inf)” value in series [1] (intravenous injection (2 mg/kg)) was 464.10 µM·h. The bioavailability (as a rule, dose-corrected exposure relative to a reference, in per cent) in series [1] (male, Sprague-Dawley, rat, plasma, PO 10 mg/kg vs IV 2 mg/kg, read-out: Bioavailability F) is 11.4%. Besides, the clearance (as a rule, a measure of how efficiently the substance is removed, as volume per time) in series [1] (male, Sprague-Dawley, rat, plasma, intravenous injection (2 mg/kg)) came to 0.145 mL/min/kg. In series [1] (male, Sprague-Dawley, rat, plasma, intravenous injection (2 mg/kg), read-out: Apparent volume of distribution), the Vd is 0.121 L/kg. In addition, in series [1] (male, Sprague-Dawley, rat, plasma, intravenous injection (2 mg/kg), read-out: Elimination half-life (converted)), the half-life (in general, the time in which the quantity being followed falls by half) is 11.1 h.
